The values that follow come from ChEMBL document CHEMBL1201862, “PubChem BioAssay data set” (2004).

What all share (experiment): NCI-60 cell line screen, 48 h
In experiment [1] the test system is SNB-78.
For experiment [2], the system named is LXFL 529.
Experiment [3] relates to DMS-114.
For experiment [4], the system named is KM-20L2.
Experiment [5] deals with DMS-273.
Experiment [6] relates to XF498.
The subject of experiment [7] is BT-549.
The subject of experiment [8] is HOP-18.

SMILES strings stand for the structures.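 In this assay, cells in 96-well plates receive the compound at five concentrations for 48 hours. Endpoints are linearly interpolated between the surrounding concentrations. The concentration for 50% growth inhibition is given as GI50.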 The source made the active and inactive calls. Cut-off read from the data, not from the text of the source: active = GI50 up to about 1.1 µM and inactive = higher. Square brackets hold non-standard residues; d marks the D form. Peptide text beside a SMILES is read from it. * marks the point of attachment. ξ: configuration not given here. X26 = COC1=CC(=O)N(C(=O)[C@@H](O*)C(C)C)[C@H]1Cc1ccccc1; Bn2Val = CC(C)[C@@H](C(=O)*)N(Cc1ccccc1)Cc1ccccc1; Propanoyl(3-(4-MeO-Ph)) = COc1ccc(CCC(=O)*)cc1; Thr(3ξ) = CC(O)[C@H](N)C(=O)O; dNMeL = CN[C@H](CC(C)C)C(=O)O; NMeV = CN[C@H](C(=O)O)C(C)C; dNMeA = CN[C@H](C)C(=O)O; ξLac = CC(O)C(=O)O Bounds are passed on as bounds.

As for `CC1=NN(C(=O)c2ccc(Cl)cc2)C(=O)/C1=C/c1cccc(O)c1`, the GI50 in experiment [1], in experiment [2], in experiment [3] and in experiment [4] was > 100 µM (inactive) in each case.
For the compound `CC(=O)NC(CCCNC(=O)OCc1ccccc1)C(=O)NCc1ccccc1` (centres undefined), the GI50 in experiment [5], in experiment [2], in experiment [3], in experiment [6] and in experiment [4] was > 100 µM (inactive) each time.
Turning to `CNC(=O)N(CCCC(NC(C)=O)C(=O)NCc1ccccc1)Cc1ccccc1` (centres undefined), the GI50 in experiment [1], in experiment [5], in experiment [2], in experiment [3], in experiment [6] and in experiment [4] was > 100 µM (inactive) throughout.
For `CC(NC(=O)CNP(=O)(c1ccccc1)c1ccccc1)C(=O)NC(Cc1ccccc1)C(=O)OCc1ccccc1` (centres undefined), the GI50 in experiment [7] is > 100 µM (inactive).
With `O=C(/C=C/c1cc2ccccc2o1)N1CCN(c2ccccn2)CC1`, the GI50 in experiment [7] is > 100 µM (inactive).
On the same count and under the same terms, next, `O=c1[nH]/c(=C/c2ccc(OCc3ccccc3)cn2)c(=O)[nH]/c1=C/c1ccc(Cl)cc1`: 0.344 µM (active).
`C=C1CC2C(=O)N(c3ccccc3)C(=O)C2CC1n1[nH]c(=O)n(Cc2ccccc2)c1=O` (centres undefined): the GI50 in experiment [1], in experiment [5], in experiment [2], in experiment [8], in experiment [6] and in experiment [4] was > 100 µM (inactive) throughout.
`COc1cc2nc3n(c(=O)c2cc1OC)CCCCC3`: the GI50 in experiment [7] was > 100 µM (inactive).
Turning to `CCCNc1c(Cl)cc(Cl)c2[nH]c3ccccc3c(=O)c12`, in experiment [7], the GI50 is 75.3 µM (inactive).
Regarding `CN(C)C(=O)Oc1ccc(C(=S)Nc2ccccc2)cc1`, the GI50 in experiment [7] is 32 µM (inactive).
Take `COc1nc2c(c(=O)n1C)N[C@@H]1[C@@H](O)[C@H](O)CO[C@@H]1N2`: the GI50 in experiment [7] is > 100 µM (inactive).
The same measure, in the same setting: the same measure for `CC(C)(C)N1C(=O)[N-]/[N+](=C(/C(c2ccccc2)=[N+]2/[N-]C(=O)N(C(C)(C)C)C2=O)c2ccccc2)C1=O`: > 100 µM (inactive).
Same read-out and setting: the same measure for `COc1ccc(C2N(c3ccc(F)c([N+](=O)[O-])c3)C(=O)N3C(c4ccc(OC)cc4)N(c4ccc(F)c([N+](=O)[O-])c4)C(=O)N23)cc1` (centres undefined): > 100 µM (inactive); for `CC(=O)[C@@H]1[C@@H](OC(=O)CCC(C)COC2OC(CO)C(O)C(O)C2O)C[C@H]2[C@@H]3CC=C4C[C@@H](OC5OC(CO)C(OC6OC(C)C(O)C(O)C6O)C(O)C5OC5OC(C)C(O)C(O)C5O)CC[C@]4(C)[C@H]3CC[C@]12C` (some centres undefined): > 100 µM (inactive).
In the case of `COc1cc(CC2C(=O)OCC2[C@@H](OC(C)=O)c2ccc3c(c2)OCO3)c(Br)c(OC)c1OC` (some centres undefined), the GI50 in experiment [5] was 30.7 µM (inactive); in experiment [2], 33.9 µM (inactive); in experiment [3] it was 28 µM (inactive); in experiment [8] it was > 100 µM (inactive); in experiment [6], 62.8 µM (inactive); in experiment [4] it was 44 µM (inactive).
Regarding `NNC(=O)CC(=O)Nc1ccc(Cl)cc1`, the GI50 in experiment [7] is > 100 µM (inactive).
Turning to `Cc1cc(C)c2c(c1C)CN1CN2Cc2c(C)c(C)cc(C)c21`, the GI50 in experiment [1] is 42.6 µM (inactive); in experiment [5] it was 6.56 µM (inactive); in experiment [2], 8.15 µM (inactive); in experiment [3], 2.92 µM (inactive); in experiment [8] it was 83.6 µM (inactive).
Regarding `CCOC(=O)C(=Cc1[nH]c2ccccc2c1-c1c[nH]c2ccccc12)C(=O)OCC`, the GI50 in experiment [7] is 14.7 µM (inactive).
For the compound `CC(C)N(c1cc2c(cc1F)c(=O)c(C(=O)O)cn2-c1ccc(N2CCN(C)CC2)cn1)C(C)C`, in experiment [7], the GI50 was 86.7 µM (inactive).
`Cc1cc(C)cc(C(=N)c2ccccc2Cc2cccc3ccccc23)c1`: in experiment [7], the GI50 is 37.8 µM (inactive).
Take `Nc1nc(Cl)cc(NCC2(O)CCC2)n1`: in experiment [7], the GI50 was > 100 µM (inactive).
As for `COc1ccc(\N=C/C=C/C(=C/COC(C)=O)OC(C)=O)cc1`, the GI50 in experiment [7] is 33.3 µM (inactive).
In the case of `COc1cc(Br)c(OC)c2c(OC)cc(C)cc12`, the GI50 in experiment [7] is 96.6 µM (inactive).
For `COC[C@H](Cc1ccccc1)/N=C/c1ccccc1`, the GI50 in experiment [7] is > 100 µM (inactive).
Turning to `CCCCc1ccc(N2C(=O)c3cccnc3S2(=O)=O)cc1`, the GI50 in experiment [7] was > 100 µM (inactive).
In the case of `O=[N+]([O-])c1cc(Cl)ccc1S(=O)(=O)c1cc(Cl)cc2c1NCCC2`, the GI50 in experiment [7] is 56.9 µM (inactive).
The same measure, in the same setting: next, `COc1cccc(C2c3cc4c(cc3OC(NNc3ccccc3)C2C)OCO4)c1OC` (centres undefined): 7.28 µM (inactive); `Cc1ccc([N+](=O)[O-])cc1NC(=O)C(=O)C1CCC2=C(Sc3ccccc3N2)C1=O` (centres undefined): > 100 µM (inactive); `Nc1nc(NCCCO)cc(=O)[nH]1`: > 100 µM (inactive).
Turning to `CC(C)(C)n1c(=O)n2n(c1=O)C1c3cccc4cccc(c34)C2C2c3cccc4cccc(c34)C1n1c(=O)n(C(C)(C)C)c(=O)n12`, the GI50 in experiment [7] is > 100 µM (inactive).
On the same count and under the same terms, the same measure for `COc1ccc(Br)c(/C=N\c2cccc3cc(OC)c(OC)cc23)c1`: 8.3 µM (inactive).
Consider `COP1(=O)OCc2cnccc2O1` (centres undefined), for which the GI50 in experiment [7] is > 100 µM (inactive).
On the same count and under the same terms, the same measure for `Cc1c2c(n(Cc3ccccn3)c1C)NN=C(C#N)S2(=O)=O`: > 100 µM (inactive).
Regarding `N#CC1CCCCC1NC1(C#N)CCCCC1` (centres undefined), the GI50 in experiment [1], in experiment [5], in experiment [2], in experiment [3], in experiment [6] and in experiment [4] was > 100 µM (inactive) each time.
Take `CC(=O)O[C@@H]1O[Si](C(C)(C)C)(C(C)(C)C)[C@H](C)[C@H]1C`: the GI50 in experiment [7] was > 100 µM (inactive).
As to `CC(NS(=O)(=O)c1ccc(Cl)cc1)C(=O)O` (centres undefined), the GI50 is > 100 µM (inactive) in experiment [5]; > 100 µM (inactive) in experiment [2]; > 100 µM (inactive) in experiment [8]; 66.7 µM (inactive) in experiment [6]; > 100 µM (inactive) in experiment [4].
As to `N#Cc1c(-c2ccc(Cl)cc2)cc(-c2ccc(Nc3ccnc4cc(C(F)(F)F)ccc34)cc2)[nH]c1=O`, the GI50 in experiment [7] is 17.4 µM (inactive).
With `C[C@]12CC(c3ccccc3O1)C(C#N)C(=O)N2` (some centres undefined), in experiment [7], the GI50 is > 100 µM (inactive).
For the compound `Cc1ccc(S(=O)(=O)C(C#N)c2nc3ccccc3nc2N2CCOCC2)cc1` (centres undefined), the GI50 is 3.09 µM (inactive) in experiment [1]; 17.8 µM (inactive) in experiment [5]; 27.9 µM (inactive) in experiment [2]; 22.5 µM (inactive) in experiment [3]; 24.3 µM (inactive) in experiment [6]; 33.4 µM (inactive) in experiment [4].
`O=C(CNc1cccc([N+](=O)[O-])c1)Nn1c(-c2ccccc2)nc2ccccc2c1=O`: in experiment [7], the GI50 is 1.87 µM (inactive).
On to `Cn1c(=O)n2n(c1=O)C(S(=O)(=O)c1ccccc1)C2` (centres undefined), for which the GI50 in experiment [7] was > 100 µM (inactive).
For `CCOC(=O)c1nc2ccccc2nc1Oc1ccc(C#N)cc1`, the GI50 in experiment [7] was > 100 µM (inactive).
With `Cc1cc(/N=C/c2ccc(F)cc2)n(-c2ccccc2)n1`, the GI50 in experiment [7] is 85.1 µM (inactive).
Turning to `O=c1[nH]c2c(C(F)(F)F)c(Cl)c(-c3ccccc3)nc2o1`, the GI50 in experiment [7] was 15.7 µM (inactive).
Turning to `NC(=O)COc1ccc(Br)cc1Br`, the GI50 in experiment [1], in experiment [5], in experiment [2], in experiment [3], in experiment [8] and in experiment [4] was > 100 µM (inactive) throughout.
Take `N#Cc1sc2c(c1OC(=O)c1ccccc1)c(=O)n(-c1ccccc1)c(=S)n2-c1ccccc1`: the GI50 in experiment [7] was 23.8 µM (inactive).
On to `CN(C)CCCNCc1cccc2ccccc12`, for which, in experiment [7], the GI50 was > 100 µM (inactive).
As to `Cc1ccc2nc3c(C(=O)NCCN(C)C)cccc3nc2c1`, the GI50 is 7.31 µM (inactive) in experiment [1]; 2.84 µM (inactive) in experiment [5]; 7.38 µM (inactive) in experiment [2]; 2.74 µM (inactive) in experiment [3]; > 27.1 µM (inactive) in experiment [8]; 3.53 µM (inactive) in experiment [4].
On to `CCC(C)N1CN(c2ccccc2)C2(CCN(CCCSc3ccc(F)cc3)CC2)C1=O` (centres undefined), for which the GI50 in experiment [7] is 1.66 µM (inactive).
As to `C/C=C1\CN2CCc3c([nH]c4ccccc34)C2CC1C(=O)OC` (centres undefined), the GI50 in experiment [5], in experiment [2], in experiment [6] and in experiment [4] was > 322 µM (inactive) in each case.
For the compound `CCCCC/C=C\C=C\CCCCCCCCC(=O)OC`, the GI50 in experiment [7] was > 100 µM (inactive).
Take `CC1(C)OC(C[C@]2(C#N)C[C@H](CCl)OC(C)(C)O2)C[C@@H](C[C@]2(C#N)C[C@H](CCl)OC(C)(C)O2)O1` (some centres undefined): the GI50 in experiment [1], in experiment [5], in experiment [2], in experiment [8], in experiment [6] and in experiment [4] was > 100 µM (inactive) throughout.
In the case of `CC#CC1/C(=C\C(=O)OC)CCCC1O` (centres undefined), the GI50 in experiment [1], in experiment [5], in experiment [3] and in experiment [6] was > 100 µM (inactive) in each case.
As for `CC(/C=C/C(=O)NO)=C\C(C)C(=O)c1ccc(N(C)C)cc1` (centres undefined), the GI50 in experiment [7] was 0.424 µM (active).
On the same count and under the same terms, next, `Cc1cc(-c2nc3ccccc3s2)ccc1NS(=O)(=O)O`: 0.544 µM (active); `CC(C)(CN)CN`: > 100 µM (inactive).
`COC1=CC(=O)N(C(=O)[C@@H](OC(=O)[C@@H](C)N(C)C(=O)[C@@H]2CCCN2C(=O)[C@H](C(C)C)N(C)C(=O)[C@@H](NC(=O)[C@H](C(C)C)N(Cc2ccccc2)Cc2ccccc2)C(C)C)C(C)C)[C@H]1Cc1ccccc1` (Bn2Val-V[NMeV]P[dNMeA]-X26): the GI50 in experiment [7] was > 100 µM (inactive).
`COC(=O)[C@@H](NC(=O)[C@@H](CC(C)C)N(C)C(=O)[C@@H]1CCCN1C(=O)C(C)O)C(C)OC(=O)CCc1ccc(OC)cc1` (some centres undefined) (H-[ξLac]P[dNMeL][Thr(3ξ)](Propanoyl(3-(4-MeO-Ph)))-OMe): in experiment [7], the GI50 was > 100 µM (inactive).
